Here are results for 14 compounds from US4238473A, “Artificial oligosaccharide antigenic determinants” (priority 1975, dated 1980).

Experiment [1] concerns Rabbit antisera raised to Le^a -BSA antigens. Put plainly: Immunodiffusion of rabbit antisera raised to Le^a -BSA antigens. It counts as binding.
In experiment [2] the test system is antisera raised to 13. Put plainly: Hapten inhibition of precipitation between 13 and antisera raised to 13. It counts as binding, rabbit. As for the experimental part:
(§1) This antigen was prepared from the hydrazide derivative of compound 2 using the acyl azide coupling method described in example XII. […] Proof of the hapten specific nature of the response comes from hapten specific inhibition of precipitation between 13 and antisera raised to 13.

Experiment [3] has as its system antibodies raised to this conjugate (antigen 12). In kind it is binding, rabbit. The note with it: 50 μl of crude sera raised to antigen 12. The text has this: (§2) For rabbits the immunization protocol was that described by Martineau^2 and for goats that of Marcus and Grollman^3. The course of the immunization was followed by quantitative precipitin tests on samples of blood withdrawn at various times. The procedures used were all standard to the field of immunology^4.

Experiment [4] has the same test system. Put plainly: Hapten inhibition of precipitation of anti-12 sera with (β-D-gal-O(CH2)8 CONH)23 -HSA. In kind it is binding, rabbit. The note with it: (β-D-gal-O(CH2)8 CONH)23 -HSA as the precipitating antigen; for IC50: read-out: concentration giving 50% inhibition of precipitation.
Experiment [5] concerns antiserum raised against [Le^a -O(CH2)8 CONH]30 -BSA. The experiment is described as follows: Maximum precipitation of anti-[Le^a -O(CH2)8 CONH]30 -BSA antiserum against test antigen. In kind it is binding, rabbit. The note with it: as test antigen against antiserum raised to [Le^a -O(CH2)8 CONH]30 -BSA. As for the experimental part:
The above antiserum had been raised against the artificial Lewis-a antigen [Le^a -O(CH2)8 CONH]30 -BSA. The maximum precipitation against [Le^a -O(CH2)8 CONH]28 -HSA as test antigen was 277 μg of antibody per 50 μl of antiserum.

The subject of experiment [6] is San Juan rabbits. The settings on record: six San Juan rabbits, antigen in Freund's complete adjuvant.
Description: as §2

For experiment [7], the system named is rabbits. Put plainly: Immunization of rabbits with 13, specificity of sera. It counts as in vivo, rabbit. The settings on record: rabbits immunized with 13. As for the experimental part:
as §1

Experiment [8] relates to human Lewis-a blood group substance. Put plainly: Goat immunization, cross-reaction of antisera with natural substance. It counts as in vivo. The note with it: goat immunized with the antigen. The source says:
(§3) To further explore the extent of cross reactions between antibodies raised to the artificial Le^a antigens and human Lewis-a blood group substance and to obtain larger amounts of antisera, a goat was immunized with [Le^a -O(CH2)8 CONH]30 -BSA.

Experiment [9] has as its system human blood group Lewis-(a+b-) red cells. The experiment is described as follows: Agglutination of red cells by goat antisera to artificial Le^a antigen. It counts as cell-based. The settings on record: goat antisera after appropriate treatment.
Description: as §3

The test system of experiment [10] is Lewis (a-) red cells. The description is as above. The settings on record: goat antisera after appropriate treatment. It counts as cell-based, human.
Description: as §3

The mark [11] stands for this setting: at the concentration that methyl β-D-glcNAc was effective.

Regarding polylysine, in experiment [1], the “line of precipitation on immunodiffusion” value was “No line of precipitation”.
Regarding `CO[C@@H]1O[C@H](CO)[C@H](O)[C@H](O)[C@H]1NC(C)=O` [methyl β-D-galNAc], in [2] (setting [11]), the “inhibition of precipitation” value is “virtually no inhibition”.
Turning to `CO[C@@H]1O[C@H](CO)[C@@H](O)[C@H](O)[C@H]1NC(C)=O` [methyl β-D-glcNAc], the inhibition of precipitation in experiment [2] (precipitation between 13 and antisera raised to 13) is listed as 60-80%.
As for (α-D-gal-O(CH2)8 CONH)17 -BSA, in experiment [3], the “maximum amount of antibody precipitated” value came out at 87 µg.
On to `CO[C@@H]1O[C@H](CO)[C@@H](O)[C@H](O)[C@H]1O` [methyl β-D-glucopyranoside], for which the “inhibition of precipitation” value in experiment [4] was “approximately no inhibition”; in [2] (setting [11]), “virtually no inhibition”.
As to `CO[C@H]1O[C@H](CO)[C@H](O)[C@H](O)[C@H]1O` [methyl α-D-galactopyranoside], the IC50 in experiment [4] was found to be 33 mM.
The same measure, in the same setting: in the case of `OC[C@H]1O[C@@H](O[C@H]2[C@H](O)[C@@H](O)C(O)O[C@@H]2CO)[C@H](O)[C@@H](O)[C@H]1O` (stereo partly drawn) [lactose] it was 70 mM.
In the case of [Le^a -O(CH2)8 CONH]28 -HSA, the maximum precipitation in experiment [5] is 277 μg of antibody per 50 μl of antiserum.
Regarding “(β-D-gal-O(CH2)8 CONH)24 -BSA [antigen 12]”, the “Antibody levels upon completion of the schedule (average)” value in experiment [6] was 277 μg per 50 μl sera. For the same compound, the “maximum amount of antibody precipitated” value in experiment [3] was 396 µg.
On to `CO[C@@H]1O[C@H](CO)[C@H](O)[C@H](O)[C@H]1O` [methyl β-D-galactopyranoside], for which, in [4], the IC50 turned out to be 0.83 mM.
As to dextran, the “line of precipitation on immunodiffusion” value in [1] was “No line of precipitation”.
Take “(β-D-glcNAc-O(CH2)8 CONH)25 -BSA [antigen 13]”: in [7], the “specificity of sera from immunized rabbits” value is “high specificity for antigens containing the β-D-glcNAc hapten”.
On to `OC[C@H]1OC(O)[C@H](O)[C@@H](O)[C@H]1O` (stereo partly drawn) [galactose], for which the IC50 in [4] was 6.6 mM.
In the case of [Le^a -O(CH2)8 CONH]30 -BSA, the “cross-reaction of antisera with human Lewis-a blood group substance” value in experiment [8] was “showed the expected cross-reaction”. Moreover, the “agglutination by the antisera” value is listed as “effectively agglutinated” in experiment [9] and “did not agglutinate” in experiment [10].
